This note sets out measurements from patent US8759522B2, “Inhibitors of protein tyrosine kinase activity” (Methylgene Inc., priority 2008, dated 2014).

Broadly, the inhibition in vivo is the percentage by which the read-out fell short of the control. High values mean a response far below the control, low ones a response near the control.

The assay relates to CNV progression. The assay can be described thus: In vivo choroidal neovascularization (CNV) model. Also on record: species or system Brown-Norway rats. To be noted: 240 h; rat laser-induced CNV, 30 nmol/eye injection on Day 3, CNV area on Day 10 vs vehicle-treated group. An excerpt: In vivo Choroidal Neovascularization (CNV) Model
This test measures the capacity of compounds to inhibit CNV progression. CNV is the main cause of severe vision loss in patients suffering from age-related macular degeneration (AMD).
Male Brown-Norway rats (Japan Clea Co., Ltd.) were used in these studies.
Rats were anesthetized by intraperitoneal injection of pentobarbital, and the right pupil was dilated with 0.5% tropicamide and 0.5% phenylephrine hydrochloride. The right eye received 6 laser burns between retinal vessels using a slit lamp delivery system of Green laser Photocoagulator (Nidex Inc., Japan), and microscope slide glass with Healon™ (AMO Inc) used as a contact lens. The laser power was 100 or 200 mW for 0.1 second and spot diameter was 100 μm. At the time of laser burn, bubble production was observed, which is an indication of rupture of Bruch's membrane which is important for CNV generation.
Rats were divided into the groups based on their body weight using SAS software (SAS institute Japan, R8.1) after laser irradiation (Day 0). After animals were anesthetized, and the right pupil dilated (as above mentioned), the right eye of the animal received the compound or vehicle by an injection (10 μL/eye) at doses of 30 nmol/eye on Day 3. The compounds were dissolved or suspended in CBS, PBS, or other adequate vehicles before injection.
On Day 10, the animals were anesthetized with ether, and high molecular weight fluorescein isothiocyanate (FITC)-dextran (SIGMA, 2×10^6 MW) was injected via a tail vein (20 mg/rat). About 30 min after FITC-dextran injection, animals were euthanized by ether or carbon dioxide, and the eyes were removed and fixed with 10% formaline neutral buffer solution. After over 1 hour of fixation, RPE-choroid-sclera flat mounts were obtained by removing cornea, lens and retina from the eyeballs. The flat mounts were mounted in 50% glycerol on a microscope slide, and the portion burned by laser was photographed using a fluorescence microscope (Nikon Corporation, excitation filter: 465-495 nm, absorption filter: 515-555 nm). The CNV area was obtained by measurement of hyper-fluorescence area observed on the photograph using Scion image.
The average CNV area of 6 burns was used as an individual value of CNV area, and the average CNV area of compound treated group was compared with that of the vehicle-treated group.
`COCCOCCNCc1ccc(-c2cc3nccc(Oc4ccc(NC(=O)Nc5cc(C)on5)cc4F)c3s2)nc1` [Compound 392, 1-(3-fluoro-4-(2-(5-((2-(2-methoxyethoxy)ethylamino)methyl)pyridin-2-yl)thieno[3,2-b]pyridin-7-yloxy)phenyl)-3-(5-methylisoxazol-3-yl)urea] yielded an inhibition in vivo at 30 nmol/eye of 40 to 60%.

With `COCCNCc1ccc(-c2cc3nccc(Oc4ccc(NC(=O)Nc5nc(C)cs5)cc4F)c3s2)nc1` [Compound 397, 1-(3-fluoro-4-(2-(5-((2-methoxyethylamino)methyl)pyridin-2-yl)thieno[3,2-b]pyridin-7-yloxy)phenyl)-3-(4-methylthiazol-2-yl)urea], the inhibition in vivo at 30 nmol/eye lay within 40 to 60%.

`COCCNCc1ccc(-c2cc3nccc(Oc4ccc(NC(=O)Nc5cccc(S(N)(=O)=O)c5)cc4F)c3s2)nc1` [Compound 403, 3-(3-(3-fluoro-4-(2-(5-((2-methoxyethylamino)methyl)pyridin-2-yl)thieno[3,2-b]pyridin-7-yloxy)phenyl)ureido)benzenesulfonamide] yielded an inhibition in vivo at 30 nmol/eye of at least 60%.

`COCCN(Cc1ccc(-c2cc3nccc(Oc4ccc(NC(=O)Nc5cccc(S(C)(=O)=O)c5)cc4F)c3s2)nc1)C(C)=O` [Compound 413, N-((6-(7-(2-fluoro-4-(3-(3-(methylsulfonyl)phenyl)ureido)phenoxy)thieno[3,2-b]pyridin-2-yl)pyridin-3-yl)methyl)-N-(2-methoxyethyl)acetamide] showed an inhibition in vivo at 30 nmol/eye of at least 60%.

With `COCCNCc1ccc(-c2cc3nccc(Oc4ccc(NC(=O)NC5CCC5)cc4F)c3s2)nc1` [Compound 414, 1-cyclobutyl-3-(3-fluoro-4-(2-(5-((2-methoxyethylamino)methyl)pyridin-2-yl)thieno[3,2-b]pyridin-7-yloxy)phenyl)urea], the inhibition in vivo at 30 nmol/eye was in the range of 40 to 60%.

In the case of `COCCN(Cc1ccc(-c2cc3nccc(Oc4ccc(NC(=O)Nc5cccc(C(N)=O)c5)cc4F)c3s2)nc1)C(=O)OC` [Compound 419, methyl (6-(7-(4-(3-(3-carbamoylphenyl)ureido)-2-fluorophenoxy)thieno[3,2-b]pyridin-2-yl)pyridin-3-yl)methyl(2-methoxyethyl)carbamate], the inhibition in vivo at 30 nmol/eye is 40 to 60%.
